This is an account of results in publication PMC10294378, “Synthesis, α-Glucosidase inhibitory activity and docking studies of Novel Ethyl 1,2,3-triazol-4-ylmethylthio-5,6-diphenylpyridazine-4-carboxylate derivatives” (BMC Chemistry, 2023).

The target of series [1] is rat small intestine α-glucosidase. Nature of the series: Rat α-glucosidase assay (4-nitrophenol release from pNPG). It is filed as biochemical. Conditions: for IC50: rat small intestine α-glucosidase, means of three replicates ± standard deviation; for α-glucosidase inhibitory activity (in words): SAR discussion. The procedure:
Based on the reported method of Lossow et al., rat small intestine α-glucosidase (EC 3.2.1.20) was prepared. The in-vitro activity was determined by the measurement of 4-nitrophenol which was released from para-nitrophenyl α-D glucopyranoside. The preparation of 200 µL was performed as follows: the enzyme solution (190 µL, 0.15 units/ml), different concentrations of target compounds (1, 10, 20, 50, 100, 500 and 1000 µM (5 µL), potassium phosphate buffer. Final compounds were dissolved in DMSO (not exceed than 5% of final volume) and pre-incubated at 37 °C, p-nitrophenyl glucopyranoside and then substrate (5 µL, 3 mM), was added to the enzyme solution and incubated for further one hour at 37 °C. Finally, by using Cytation 3 hybrid microplate reader (BioTek, USA) any change in the absorbance was measured at 405 nm. By using GraphPadprism 6.0 (SanDiego, California, USA) (https://www.graphpad.com/scientificsoftware/prism/) was used to obtain IC50 values of tested compounds.

The subject of another series is α-glucosidase. Description: Kinetic analysis (Lineweaver-Burk and secondary plot). Format: biochemical, rat. How it is done:
Modes of enzyme inhibition were determined by recording the effect of various concentrations of the substrates 1, 2.5, 5 or 10 mM pNPG for α-glucosidase on Lineweaver–Burk plots using calculated Vmax and Km. For inhibition test of α-glucosidase: the concentrations applied for compounds 10k was 0.1, 1, 5 and 10 nM. Inhibition constants (Ki) were determined by depicting the secondary plot of Km against various concentrations of inhibitors.
The activity of […] (PNPG) was investigated in the presence and absence of compound 10k.

A further series has as its system HDF. Description: Cytotoxicity against normal cell line. Format: cell-based.

The term IC50 denotes the concentration that gives 50% inhibition. A high value points to weaker potency in that assay. By melting point is commonly meant the temperature, or range, at which the solid turns liquid.

“Also recorded” adds a separate entry of the source.

In the case of `CCOC(=O)c1c(SCc2cn(CC(=O)Nc3ccc(Cl)cc3)nn2)nnc(-c2ccccc2)c1-c1ccccc1` [Compound 10j, Ethyl 3-(((1-(2-((4-chlorophenyl)amino)-2-oxoethyl)-1H-1,2,3-triazol-4-yl)methyl)thio)-5,6-diphenylpyridazine-4-carboxylate], the melting point lay within 195 to 197 °C. In series [1], this compound displayed a half-inhibitory concentration (IC50) of 21 ± 5.3 µM.

In turn, `CCOC(=O)c1c(SCc2cn(CC(=O)Nc3cccc(Cl)c3)nn2)nnc(-c2ccccc2)c1-c1ccccc1` [Compound 10i, Ethyl 3-(((1-(2-((3-chlorophenyl)amino)-2-oxoethyl)-1H-1,2,3-triazol-4-yl)methyl)thio)-5,6-diphenylpyridazine-4-carboxylate] yielded a melting point of 200 to 202 °C. In series [1], the “α-glucosidase inhibitory activity (in words)” value is reported as “no inhibitory activity” and the half-maximal inhibitory concentration (IC50) is greater than 250 µM.

As to `CCOC(=O)c1c(SCc2cn(CC(=O)Nc3ccc(Cl)c(Cl)c3)nn2)nnc(-c2ccccc2)c1-c1ccccc1` [10 m, Ethyl 3-(((1-(2-((3,4-dichlorophenyl)amino)-2-oxoethyl)-1H-1,2,3-triazol-4-yl)methyl)thio)-5,6-diphenylpyridazine-4-carboxylate], the melting point was in the range of 166 to 168 °C. Besides, in series [1], the “α-glucosidase inhibitory activity (in words)” value was “active” and the half-inhibitory concentration (IC50) amounted to 27.7 ± 3 µM.

`CCOC(=O)c1c(SCc2cn(CC(=O)Nc3ccc([N+](=O)[O-])c(C)c3)nn2)nnc(-c2ccccc2)c1-c1ccccc1` [Compound 10r, Ethyl 3-(((1-(2-((3-methyl-4-nitrophenyl)amino)-2-oxoethyl)-1H-1,2,3-triazol-4-yl)methyl)thio)-5,6-diphenylpyridazine-4-carboxylate] had a melting point of 212 to 214 °C. Besides, in series [1], the “α-glucosidase inhibitory activity (in words)” value is listed as “no activity” and the IC50 was greater than 250 µM.

Consider `CCOC(=O)c1c(SCc2cn(CC(=O)Nc3cccc(C#N)c3)nn2)nnc(-c2ccccc2)c1-c1ccccc1` [Compound 10n, Ethyl 3-(((1-(2-((3-cyanophenyl)amino)-2-oxoethyl)-1H-1,2,3-triazol-4-yl)methyl)thio)-5,6-diphenylpyridazine-4-carboxylate], for which the melting point was in the range of 196 to 198 °C. In addition, in series [1], the IC50 was greater than 250 µM.

As to `CCOC(=O)c1c(SCc2cn(CC(=O)Nc3ccccc3Cl)nn2)nnc(-c2ccccc2)c1-c1ccccc1` [10 h, Ethyl 3-(((1-(2-((2-chlorophenyl)amino)-2-oxoethyl)-1H-1,2,3-triazol-4-yl)methyl)thio)-5,6-diphenylpyridazine-4-carboxylate], the melting point fell in the range of 161 to 163 °C. The same compound returned a concentration for half-maximal inhibition (IC50) in series [1] of 14.9 ± 1.9 µM.

`CCOC(=O)c1c(SCc2cn(CC(=O)Nc3ccc(OC)cc3)nn2)nnc(-c2ccccc2)c1-c1ccccc1` [Compound 10f, Ethyl 3-(((1-(2-((4-methoxyphenyl)amino)-2-oxoethyl)-1H-1,2,3-triazol-4-yl)methyl)thio)-5,6-diphenylpyridazine-4-carboxylate] showed a melting point of 230 to 232 °C. Further, the half-inhibitory concentration (IC50) in series [1] came to 25.2 ± 2.5 µM.

Regarding `CCOC(=O)c1c(SCc2cn(CC(=O)Nc3cc(Cl)cc(Cl)c3)nn2)nnc(-c2ccccc2)c1-c1ccccc1` [10 L, Ethyl 3-(((1-(2-((3,5-dichlorophenyl)amino)-2-oxoethyl)-1H-1,2,3-triazol-4-yl)methyl)thio)-5,6-diphenylpyridazine-4-carboxylate], the melting point fell in the range of 185 to 187 °C. Besides, in series [1], the “α-glucosidase inhibitory activity (in words)” value was “active” and the IC50 turned out to be 14.1 ± 3.3 µM.

For the compound `CCOC(=O)c1c(SCc2cn(CC(=O)Nc3ccc(C(C)C)cc3)nn2)nnc(-c2ccccc2)c1-c1ccccc1` [Compound 10d, Ethyl 3-(((1-(2-((4-isopropylphenyl)amino)-2-oxoethyl)-1H-1,2,3-triazol-4-yl)methyl)thio)-5,6-diphenylpyridazine-4-carboxylate], the melting point was in the range of 183 to 185 °C. The compound further displayed an IC50 in series [1] of 86.5 ± 7.3 µM.

Take `CCOC(=O)c1c(SCc2cn(CC(=O)Nc3ccc(Br)cc3)nn2)nnc(-c2ccccc2)c1-c1ccccc1` [Compound 10k, Ethyl 3-(((1-(2-((4-bromophenyl)amino)-2-oxoethyl)-1H-1,2,3-triazol-4-yl)methyl)thio)-5,6-diphenylpyridazine-4-carboxylate]: the melting point lay within 224 to 226 °C. This compound also showed an IC50 in series [1] of 1.7 ± 0.12 µM. Further, the “folds more active than standard drug (acarbose)” value in series [1] (ratio of IC50 values against acarbose) came to 100 folds. Further, in the series with α-glucosidase, the mode of inhibition entry is “uncompetitive”. Further, the cytotoxicity result with HDF is “not toxic; also recorded: No toxicity”.

`CCOC(=O)c1c(SCc2cn(CC(=O)Nc3ccccc3)nn2)nnc(-c2ccccc2)c1-c1ccccc1` [Compound 10a, Ethyl 3-(((1-(2-oxo-2-(phenylamino)ethyl)-1H-1,2,3-triazol-4-yl)methyl)thio)-5,6-diphenylpyridazine-4-carboxylate] displayed a melting point of 147 to 149 °C. Also, half-maximal inhibition in series [1] (IC50) required 35.6 ± 8.9 µM.

`CCOC(=O)c1c(SCc2cn(CC(=O)Nc3cccc([N+](=O)[O-])c3)nn2)nnc(-c2ccccc2)c1-c1ccccc1` [Compound 10p, Ethyl 3-(((1-(2-((3-nitrophenyl)amino)-2-oxoethyl)-1H-1,2,3-triazol-4-yl)methyl)thio)-5,6-diphenylpyridazine-4-carboxylate] showed a melting point of 201 to 203 °C. Further, half-maximal inhibition in series [1] (IC50) required 84 ± 13.2 µM.

Regarding `C[C@H]1O[C@H](O[C@H]2[C@H](O)[C@@H](O)[C@@H](O[C@H]3[C@H](O)[C@@H](O)C(O)O[C@@H]3CO)O[C@@H]2CO)[C@H](O)[C@@H](O)[C@@H]1N[C@H]1C=C(CO)[C@@H](O)[C@H](O)[C@H]1O` (stereo partly drawn) [Acarbose, reference compound], in series [1], the IC50 was 170 ± 23.1 µM.

As for `CCOC(=O)c1c(SCc2cn(CC(=O)Nc3ccc([N+](=O)[O-])cc3)nn2)nnc(-c2ccccc2)c1-c1ccccc1` [Compound 10q, Ethyl 3-(((1-(2-((4-nitrophenyl)amino)-2-oxoethyl)-1H-1,2,3-triazol-4-yl)methyl)thio)-5,6-diphenylpyridazine-4-carboxylate], the melting point was 221 to 223 °C. Besides, in series [1], the “α-glucosidase inhibitory activity (in words)” value is “active” and the IC50 was determined as 47.1 ± 5.6 µM.

Regarding `CCOC(=O)c1c(SCc2cn(CC(=O)Nc3ccc(C)cc3)nn2)nnc(-c2ccccc2)c1-c1ccccc1` [Compound 10c, Ethyl 3-(((1-(2-oxo-2-(p-tolylamino)ethyl)-1H-1,2,3-triazol-4-yl)methyl)thio)-5,6-diphenylpyridazine-4-carboxylate], the melting point lay in the range of 207 to 209 °C. In series [1], this compound displayed an IC50 greater than 250 µM.

For the compound `CCOC(=O)c1c(SCc2cn(CC(=O)Nc3ccc(F)cc3)nn2)nnc(-c2ccccc2)c1-c1ccccc1` [10 g, Ethyl 3-(((1-(2-((4-fluorophenyl)amino)-2-oxoethyl)-1H-1,2,3-triazol-4-yl)methyl)thio)-5,6-diphenylpyridazine-4-carboxylate], the melting point is 211 to 213 °C. The IC50 in series [1] was determined as 37.5 ± 7.2 µM.

`CCOC(=O)c1c(SCc2cn(CC(=O)Nc3cccc(C)c3)nn2)nnc(-c2ccccc2)c1-c1ccccc1` [Compound 10b, Ethyl 3-(((1-(2-oxo-2-(m-tolylamino)ethyl)-H-1,2,3-triazol-4-yl)methyl)thio)-5,6-diphenylpyridazine-4-carboxylate] gave a half-maximal inhibitory concentration (IC50) in series [1] of 58.9 ± 7.5 µM.

Compound `CCOC(=O)c1c(SCc2cn(CC(=O)Nc3cccc(OC)c3)nn2)nnc(-c2ccccc2)c1-c1ccccc1` [Compound 10e, Ethyl 3-(((1-(2-((3-methoxyphenyl)amino)-2-oxoethyl)-1H-1,2,3-triazol-4-yl)methyl)thio)-5,6-diphenylpyridazine-4-carboxylate] returned a melting point of 155 to 157 °C. The same compound had an IC50 in series [1] of 35.7 ± 3.9 µM.
